Measured values from patent US20190085289A1, “COMPOSITIONS AND METHODS FOR PATHOGEN INACTIVATION OF PLATELETS” (Cerus Corporation, priority 2017, published 2019).
Marks after values point to notes of the source that are not given here.

Columns and labels:
[1] = test system: calicivirus FCV; assay: FCV inactivation with 150 μM S-59 after pre-incubation in PAS/Plasma, plaque assay; format: cell-based, feline calicivirus (FCV); details: for Normalized FCV Log Inactivation/mL / FCV Log Inactivation/mL / FCV Titer, 3J TEST: S-59 ~150 μM, UVA ~3 J/cm^2; for Normalized FCV Log Inactivation/mL: normalized to the FCV pool titer; for FCV Log Inactivation/mL: vs 0J control of same time; for FCV Titer, 3J TEST: platelets in PAS/Plasma 65%/35%
Method: From the results of Examples 1 and 2, showing that amotosalen is stable in PAS and PAS/Plasma, an additional study was performed that evaluated the level of inactivation of the calicivirus FCV with S-59 after extended incubation in PAS/Plasma. In this study, platelets in PAS/Plasma (65%/35%) were pooled to approximately 1320 mL, with approximately 16×10^11 total platelets, and spiked with a stock of the calicivirus FCV at a 1:100 dilution. A sample was taken from the FCV-spiked platelet pool to determine initial titer. The FCV-spiked platelets were then split into 5 units, at approximately 260 mL each, with approximately 3.2×10^11 platelets per unit. Each unit was dosed with S-59 at approximately 150 μM concentration, which is the concentration used commercially in the INTERCEPT® Blood System for pathogen inactivation treatment. Following the addition of S-59, the platelet units were incubated for 0, 2, 4, 8 or 24 hr. A control sample was taken at each time point for virus titer determination and HPLC analysis of S-59 concentration pre-UVA treatment, followed by UVA light exposure at ˜3 J/cm^2 to complete the photochemical treatment process for all test samples. Following UVA treatment, the control and test samples were evaluated for inactivation of FCV using a standard virological plaque assay.

[2] = Stability and photoconversion of S-59 in 65% PAS/35% plasma with platelets (HPLC); format: physicochemical; details: for S-59 UV peak area (HPLC) / S-59 concentration (HPLC): 150 μM in 65% InterSol PAS/35% plasma with platelets
Method: A further study evaluated stability and photoconversion of amotosalen (S-59) in PAS with added plasma, and also containing platelets. S-59 was added at a concentration of 150 μM to 65% InterSol® PAS and 35% plasma a suspended preparation of platelets, and the admixture maintained in a platelet incubator during the study time course. Samples were removed for HPLC analysis at times 0, 5, 21, 29 and 48 hours, and the mixture was then treated with ˜3 J of UVA light at 55 hours with a post-UVA sample also analyzed by HPLC for both S-59 and photoproducts. […] Peak D and Peak E photoproducts were not detected (Table 3).

[3] = test system: K. pneumoniae; assay: Photochemical inactivation of K. pneumoniae in platelets, bacterial titer assay; format: cell-based
Method: Another study evaluated 24 hour stability and photoconversion of amotosalen (S-59) in PAS with plasma and platelets, in the presence of bacteria. Two ABO matched platelet units in 100% plasma were pooled, split into two units and InterSol® PAS added (e.g., 65/35). S-59 was added to the test unit at a concentration of 150 but not initially to the control unit. A log culture of K. pneumoniae (˜8 log cfu/mL) was added to the units at a target of ˜60 CFU/unit and the units were incubated in a platelets shaker at 22° C. for approximately 24 hours. At the end of incubation, S-59 was also added to the control unit at the same concentration and both control and test units were subjected to UVA light. Samples were taken pre- and post-UVA illumination for both units bacterial titer assay and HPLC. Post-illumination both units were subjected to a CAD processing step to remove residual amotosalen and photoproducts and stored on a platelet shaker for 7 days to confirm no growth of bacteria. Photochemical inactivation of K. pneumoniae was also measured post-UVA exposure, with the titer (log cfu/mL) results shown in the following table.

[4] = Stability of S-59 in InterSol PAS under ambient light (HPLC); format: physicochemical; details: for S-59 UV peak area (HPLC) / S-59 concentration (HPLC): 230 μM in InterSol PAS, room temp
Method: Initial studies evaluated stability of the pathogen inactivation compound amotosalen (S-59) that was formulated in a platelet additive solution (PAS). A 230 μM solution of psoralen compound S-59 (Irsch et al., Transfus Med Hemother, 38: 19-31 (2011)) was prepared in the commercially available PAS solution InterSol® (Fenwal Inc.) and maintained at room temperature under ambient light conditions. HPLC analysis was performed on samples at times listed in Table 1 for both S-59 and photoproducts. […] S-59 data are shown as both concentration (μM), as well as peak area (S-59 UV) for relative comparison to any photoproducts detected with HPLC (Table 1). Peak D and Peak E photoproducts also were observed by 22 hr and 72 hr, respectively, as well as process impurity decomposition product 4′-HMT, with peak area values indicated (Table 1).

[5] = Control unit (S-59 added after ~24 h incubation, then UVA), Replicate 1
[6] = Control unit (S-59 added after ~24 h incubation, then UVA), Replicate 2
[7] = Test unit (S-59 150 present during ~24 h incubation, then UVA), Replicate 1
[8] = Test unit (S-59 150 present during ~24 h incubation, then UVA), Replicate 2

Cc1oc2c(C)c3oc(=O)cc(C)c3cc2c1COCCN [S-59, 3-(2-aminoethoxymethyl)-2,5,9-trimethylfuro[3,2-g]chromen-7-one]
level of FCV inactivation ([1]; S-59/PAS/Plasma incubated 2 or more hours prior to UVA exposure): below the limit of detection | Normalized FCV Log Inactivation/mL ([1]; pre-incubation T = 0 hr): 1.4 Log/mL | FCV Log Inactivation/mL ([1]; pre-incubation T = 0 hr): 1.2 Log/mL | Normalized FCV Log Inactivation/mL ([1]; pre-incubation T = 2 hr): >5.8 Log/mL | FCV Log Inactivation/mL ([1]; pre-incubation T = 2 hr): >5.4 Log/mL | Normalized FCV Log Inactivation/mL ([1]; pre-incubation T = 4 hr): >5.8 Log/mL | FCV Log Inactivation/mL ([1]; pre-incubation T = 4 hr): >5.7 Log/mL | Normalized FCV Log Inactivation/mL ([1]; pre-incubation T = 8 hr): >5.8 Log/mL | FCV Log Inactivation/mL ([1]; pre-incubation T = 8 hr): >5.2 Log/mL | Normalized FCV Log Inactivation/mL ([1]; pre-incubation T = 24 hr): >5.8 Log/mL | FCV Log Inactivation/mL ([1]; pre-incubation T = 24 hr): >5.1 Log/mL | FCV Titer, 3J TEST ([1]; pre-incubation T = 0 hr): 4.6 Log PFU/mL | FCV Titer, 3J TEST ([1]; pre-incubation T = 2 hr): <0.22* Log PFU/mL | FCV Titer, 3J TEST ([1]; pre-incubation T = 4 hr): <0.22* Log PFU/mL | FCV Titer, 3J TEST ([1]; pre-incubation T = 8 hr): <0.22* Log PFU/mL | FCV Titer, 3J TEST ([1]; pre-incubation T = 24 hr): <0.22* Log PFU/mL | S-59 UV peak area (HPLC) ([2]; platelet incubator, 5 hr): 1738.331 | S-59 concentration (HPLC) ([2]; platelet incubator, 5 hr): 149.30 µM | S-59 UV peak area (HPLC) ([2]; platelet incubator, 21 hr): 1739.214 | S-59 concentration (HPLC) ([2]; platelet incubator, 21 hr): 147.81 µM | S-59 UV peak area (HPLC) ([2]; platelet incubator, 29 hr): 1725.882 | S-59 concentration (HPLC) ([2]; platelet incubator, 29 hr): 148.04 µM | S-59 UV peak area (HPLC) ([2]; platelet incubator, 48 hr): 1750.513 | S-59 concentration (HPLC) ([2]; platelet incubator, 48 hr): 148.06 µM | S-59 UV peak area (HPLC) ([2]; platelet incubator, T 0): 1752.513 | S-59 concentration (HPLC) ([2]; platelet incubator, T 0): 148.12 µM | S-59 UV peak area (HPLC) ([2]; 55 hr post-UVA (~3 J UVA)): 274.897 | S-59 concentration (HPLC) ([2]; 55 hr post-UVA (~3 J UVA)): 22.71 µM | S-59 remaining in the post-UVA samples ([2]; 150 μM, 55 hour incubation in PAS/plasma with platelets, then ~3 J UVA): 15.3% | loss of S-59 ([2]; PAS/plasma/platelets admixture, prior to the UVA treatment at 55 hours): no loss | K. pneumoniae Log Reduction [3, 5]: >7.3 Log | K. pneumoniae Titer Post-UVA [3, 5]: <−0.7 log cfu/mL | K. pneumoniae Log Reduction [3, 6]: >6.3 Log | K. pneumoniae Titer Post-UVA [3, 6]: <−0.7 log cfu/mL | K. pneumoniae Log Reduction [3, 7]: >7.3 Log | K. pneumoniae Titer Post-UVA [3, 7]: <−0.7 log cfu/mL | K. pneumoniae Log Reduction [3, 8]: >6.2 Log | K. pneumoniae Titer Post-UVA [3, 8]: <−0.7 log cfu/mL | photochemical inactivation of K. pneumoniae ([3]; post-UVA, both the control and test units): High level inactivation | S-59 UV peak area (HPLC) ([4]; 5 hr): 3593.309 | S-59 concentration (HPLC) ([4]; 5 hr): 230.62 µM | S-59 UV peak area (HPLC) ([4]; 6 hr): 3575.825 | S-59 concentration (HPLC) ([4]; 6 hr): 229.50 µM | S-59 UV peak area (HPLC) ([4]; 22 hr): 3485.467 | S-59 concentration (HPLC) ([4]; 22 hr): 223.71 µM | S-59 UV peak area (HPLC) ([4]; 30 hr): 3529.854 | S-59 concentration (HPLC) ([4]; 30 hr): 226.56 µM | S-59 UV peak area (HPLC) ([4]; 47 hr): 3486.293 | S-59 concentration (HPLC) ([4]; 47 hr): 223.76 µM | S-59 UV peak area (HPLC) ([4]; 56 hr): 3440.455 | S-59 concentration (HPLC) ([4]; 56 hr): 220.82 µM | S-59 UV peak area (HPLC) ([4]; 72 hr): 3534.894 | S-59 concentration (HPLC) ([4]; 72 hr): 226.88 µM | S-59 UV peak area (HPLC) ([4]; 78 hr): 3485.093 | S-59 concentration (HPLC) ([4]; 78 hr): 223.69 µM | S-59 UV peak area (HPLC) ([4]; T 0): 3700.439 | S-59 concentration (HPLC) ([4]; T 0): 237.49 µM | loss of S-59 ([4]; InterSol PAS, at 78 hours): < 6%
